The target in one assay is T1, Wild-Type ALK (Homo sapiens, UniProt Q9UM73).
T1 construct: purchased Life Technology
Kind of assay: Z'-LYTE (FRET) ALK kinase inhibitory activity. It counts as biochemical. As to the method: (§1) The kinase activity assay was determined by using kinase assay panel (Life Technology) and the result was in table 1.

The next assay has as its target T2, ALK L1196M (Homo sapiens, UniProt Q9UM73, L1196M).
T2 construct: purchased Life Technology
As to the kind of experiment: LanthaScreen Eu Kinase Binding Assay (TR-FRET) on ALK mutant.
Description: Meanwhile, The LanthaScreen® Eu Kinase Binging Assay (TR-FRET) method was used for determining ALK Mutants (such as ALK L1196M) inhibitory activity IC50. LanthaScreen Eu kinase binding experiment detected Alexa Fluor conjugate or kinase “tracer” binding by adding Eu labeled antibodies or anti-label antibodies. The combination of tracer and antibody with kinase leads to a high level of FRET, whereas the use of kinase inhibitors in place of tracer may cause FRET loss.
as §1
In general terms: In TR-FRET formats the signal depends on donor and acceptor labels being close together.

A further assay has as its target T3, TEL-ALK-F1174L-BaF3 (Homo sapiens, UniProt Q9UM73, F1174L, cells depend on it).
T3 construct: fused on or other part: TEL (ETV6) N-terminal oligomerising part fused before the ALK intracellular/kinase part; P41212 (Transcription factor ETV6)
Kind of assay: Cell proliferation experiment (Cell-Titer GLO), TEL-ALK-F1174L-BaF3. As to conditions: 72 h, read-out: IC50 TEL-ALK F1174L-BaF3. It counts as cell-based. Here is the method:
(§2) Compounds to be tested: Positive compound Ceritinib and the compounds obtained by the examples of the present invention.
(§3) Cell lines: Karpas-299 and NCI-H3122 which were purchased from the Nanjing kebai biotechnology Co. LTD; TEL-ALK-F1174L-BaF3, TEL-ALK-G1202R-BaF3, TEL-ALK-C1156Y-BaF3 and TEL-ALK-L1196M-BaF3 which were purchased from Hefei zhongkopruisheng biological medicine technology Co. LTD.
(§4) Method: Cells were seeded in 96-well plates for 24 h in growth media containing 10% fetalbovine serum (FBS) and cultured overnight at 37° C. The following day, serial dilutions of compounds or appropriate control were added to the designated wells, and cells were incubated at 37° C. for 72 h. A Cell Titer Glo assay (Promega) was then performed to determine the relative cell numbers. IC50 values were calculated by concentration-response curve fitting using a four-parameter analytical method with Graphpad 6.0. Drug inhibition rate (%)=100%−[OD(Compound)−OD(blank)]/[OD(vehicle)−OD(blank)]×100% Equation: […]

For the next assay, the target named is T4, TEL-ALK-G1202R-BaF3 (Homo sapiens, UniProt Q9UM73, G1202R, cells depend on it).
T4 construct: fused on or other part: TEL (ETV6) N-terminal oligomerising part fused before the ALK intracellular/kinase part; P41212 (Transcription factor ETV6)
T4 sequence (Q9UM73 whole entry G1202R, the tested form may be a part): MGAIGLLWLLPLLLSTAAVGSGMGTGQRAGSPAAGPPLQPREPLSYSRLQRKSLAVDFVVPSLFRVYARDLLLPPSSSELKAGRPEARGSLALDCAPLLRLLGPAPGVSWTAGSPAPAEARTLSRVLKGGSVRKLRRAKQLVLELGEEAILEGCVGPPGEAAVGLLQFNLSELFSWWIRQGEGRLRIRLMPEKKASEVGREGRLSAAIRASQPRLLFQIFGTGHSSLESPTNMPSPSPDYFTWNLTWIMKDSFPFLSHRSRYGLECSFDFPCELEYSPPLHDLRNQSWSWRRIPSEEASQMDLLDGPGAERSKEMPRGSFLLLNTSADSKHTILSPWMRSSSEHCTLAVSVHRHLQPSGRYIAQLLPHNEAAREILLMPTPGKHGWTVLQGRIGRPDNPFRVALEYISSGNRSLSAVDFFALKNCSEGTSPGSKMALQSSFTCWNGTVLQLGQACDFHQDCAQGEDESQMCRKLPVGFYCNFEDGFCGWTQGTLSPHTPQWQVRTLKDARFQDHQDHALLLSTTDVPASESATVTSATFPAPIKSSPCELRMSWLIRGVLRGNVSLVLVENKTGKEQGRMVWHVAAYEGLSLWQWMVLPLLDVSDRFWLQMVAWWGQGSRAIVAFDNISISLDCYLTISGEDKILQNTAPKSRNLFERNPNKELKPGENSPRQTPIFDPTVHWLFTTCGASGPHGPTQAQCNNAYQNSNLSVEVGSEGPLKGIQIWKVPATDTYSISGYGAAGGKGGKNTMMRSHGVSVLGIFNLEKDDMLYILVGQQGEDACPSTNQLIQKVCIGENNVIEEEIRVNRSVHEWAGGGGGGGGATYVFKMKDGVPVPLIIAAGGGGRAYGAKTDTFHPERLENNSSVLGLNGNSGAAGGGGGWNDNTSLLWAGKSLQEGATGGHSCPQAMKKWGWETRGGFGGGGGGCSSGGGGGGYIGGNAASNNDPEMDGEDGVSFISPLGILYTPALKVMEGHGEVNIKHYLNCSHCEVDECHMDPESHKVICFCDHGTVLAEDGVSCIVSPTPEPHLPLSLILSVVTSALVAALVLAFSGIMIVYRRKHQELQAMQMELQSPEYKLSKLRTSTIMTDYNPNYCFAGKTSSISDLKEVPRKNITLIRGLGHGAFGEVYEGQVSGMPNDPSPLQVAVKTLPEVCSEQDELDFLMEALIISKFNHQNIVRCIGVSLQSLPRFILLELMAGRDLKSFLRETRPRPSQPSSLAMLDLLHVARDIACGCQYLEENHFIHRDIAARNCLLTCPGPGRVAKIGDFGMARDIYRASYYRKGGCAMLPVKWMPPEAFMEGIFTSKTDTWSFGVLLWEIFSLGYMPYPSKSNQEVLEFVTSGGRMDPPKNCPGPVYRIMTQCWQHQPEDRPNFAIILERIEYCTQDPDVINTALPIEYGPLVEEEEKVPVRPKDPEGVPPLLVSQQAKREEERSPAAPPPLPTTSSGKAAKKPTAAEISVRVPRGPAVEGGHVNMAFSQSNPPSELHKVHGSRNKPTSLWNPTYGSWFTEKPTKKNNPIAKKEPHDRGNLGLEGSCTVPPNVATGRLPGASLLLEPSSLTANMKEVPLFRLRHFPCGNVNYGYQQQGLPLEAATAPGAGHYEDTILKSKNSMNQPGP
As to the kind of experiment: Cell proliferation experiment (Cell-Titer GLO), TEL-ALK-G1202R-BaF3. It counts as cell-based. As to conditions: 72 h, read-out: IC50 TEL-ALK G1202R-BaF3. Here is the method:
as §2, §3, §4

The next assay relates to NCI-H3122. Kind of assay: Cell proliferation experiment (Cell-Titer GLO), NCI-H3122. It counts as cell-based. Conditions: Homo sapiens, 72 h. Here is the method: as §2, §3, §4

T3 sequence (Q9UM73 whole entry F1174L, the tested form may be a part): as the sequence (Q9UM73 whole entry G1202R, the tested form may be a part) above, with F1174L, R1202G counted along it
T2 sequence (Q9UM73 19-1620 L1196M): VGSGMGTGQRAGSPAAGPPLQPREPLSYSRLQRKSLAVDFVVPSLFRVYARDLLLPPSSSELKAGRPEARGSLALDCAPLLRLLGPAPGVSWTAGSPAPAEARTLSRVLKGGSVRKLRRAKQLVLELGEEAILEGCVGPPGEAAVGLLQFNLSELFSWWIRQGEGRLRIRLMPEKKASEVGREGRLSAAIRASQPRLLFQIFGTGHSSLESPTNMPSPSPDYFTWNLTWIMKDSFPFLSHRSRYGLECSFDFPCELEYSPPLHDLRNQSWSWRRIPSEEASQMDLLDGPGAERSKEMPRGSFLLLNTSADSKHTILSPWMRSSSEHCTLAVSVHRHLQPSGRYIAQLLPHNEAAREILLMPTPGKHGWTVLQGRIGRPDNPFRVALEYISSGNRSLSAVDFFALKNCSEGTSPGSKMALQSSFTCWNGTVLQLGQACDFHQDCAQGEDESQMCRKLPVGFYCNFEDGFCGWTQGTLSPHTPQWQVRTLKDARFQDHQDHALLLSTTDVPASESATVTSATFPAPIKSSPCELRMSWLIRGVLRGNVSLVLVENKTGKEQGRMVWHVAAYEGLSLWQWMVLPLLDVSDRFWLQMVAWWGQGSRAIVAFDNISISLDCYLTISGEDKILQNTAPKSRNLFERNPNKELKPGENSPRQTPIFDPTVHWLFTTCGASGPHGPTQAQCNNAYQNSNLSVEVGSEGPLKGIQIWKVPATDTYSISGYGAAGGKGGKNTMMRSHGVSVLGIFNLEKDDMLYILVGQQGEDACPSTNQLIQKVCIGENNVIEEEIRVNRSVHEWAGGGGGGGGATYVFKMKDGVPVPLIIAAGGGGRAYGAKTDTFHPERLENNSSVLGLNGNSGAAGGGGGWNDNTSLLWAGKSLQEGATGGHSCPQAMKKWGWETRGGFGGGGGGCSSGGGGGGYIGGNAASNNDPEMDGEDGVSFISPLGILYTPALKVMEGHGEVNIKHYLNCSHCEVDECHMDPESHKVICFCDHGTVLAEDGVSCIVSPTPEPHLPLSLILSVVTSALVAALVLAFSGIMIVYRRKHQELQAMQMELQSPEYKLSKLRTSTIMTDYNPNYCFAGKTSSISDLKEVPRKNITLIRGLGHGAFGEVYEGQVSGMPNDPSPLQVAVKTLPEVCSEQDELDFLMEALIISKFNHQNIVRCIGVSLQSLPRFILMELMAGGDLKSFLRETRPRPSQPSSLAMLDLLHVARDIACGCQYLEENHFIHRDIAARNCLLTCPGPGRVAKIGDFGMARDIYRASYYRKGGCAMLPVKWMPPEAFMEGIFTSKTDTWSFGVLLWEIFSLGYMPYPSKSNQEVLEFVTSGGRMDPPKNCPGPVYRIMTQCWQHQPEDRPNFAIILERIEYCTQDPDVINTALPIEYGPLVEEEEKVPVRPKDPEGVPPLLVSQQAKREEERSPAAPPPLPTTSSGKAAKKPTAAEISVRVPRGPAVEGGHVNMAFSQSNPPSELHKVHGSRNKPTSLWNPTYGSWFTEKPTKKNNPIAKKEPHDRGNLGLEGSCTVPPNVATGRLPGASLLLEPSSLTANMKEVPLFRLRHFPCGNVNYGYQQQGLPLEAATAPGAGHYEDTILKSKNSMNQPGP
T1 sequence (Q9UM73 19-1620): as the sequence (Q9UM73 19-1620 L1196M) above, with M1178L counted along it

Broadly, the IC50 is the concentration that inhibits the measured activity by half. As to `Cc1cc(Nc2ncc(Cl)c(Nc3cn(C4CC4)nc3S(=O)(=O)C(C)C)n2)c2c(c1C1CCNCC1)C[C@@H](C)O2` [REX-D31, (R)-5-chloro-N^4-(1-cyclopropyl-3-(isopropylsulfonyl)-1H-pyrazol-4-yl)-N^2-(2,5-dimethyl-4-(piperidin-4-yl)-2,3-dihydrobenzofuran-7-yl)pyrimidine-2,4-diamine], the IC50 against Wild-Type ALK worked out at 15.1 nM; on ALK L1196M, 1.92 nM; with NCI-H3122, 40.4 nM. Further, the values for the GI50 on TEL-ALK-F1174L-BaF3 and on TEL-ALK-G1202R-BaF3 were 138 nM and above 180 nM, respectively.

In the case of `CCn1cc(Nc2nc(Nc3cc(C)c(C4CCNCC4)c4c3O[C@H](C)C4)ncc2Cl)c(S(=O)(=O)C(C)C)n1` [REX-D33, (R)-5-chloro-N^2-(2,5-dimethyl-4-(piperidin-4-yl)-2,3-dihydrobenzofuran-7-yl)-N^4-(1-ethyl-3-(isopropylsulfonyl)-1H-pyrazol-4-yl)pyrimidine-2,4-diamine], the half-inhibitory concentration (IC50) on Wild-Type ALK amounted to 15.5 nM; at ALK L1196M it was 2 nM; in the assay with NCI-H3122, 11.7 nM. In addition, the GI50 on TEL-ALK-F1174L-BaF3 was 33.4 nM; at TEL-ALK-G1202R-BaF3, above 180 nM.

As for `Cc1cc(Nc2ncc(Cl)c(Nc3cn(C)nc3S(=O)(=O)C(C)C)n2)c2c(c1C1CCN(CCO)CC1)C[C@@H](C)O2` [REX-D11, (R)-2-(4-(7-((5-chloro-4-((3-(isopropylsulfonyl)-1-methyl-1H-pyrazol-4-yl)amino)pyrimidin-2-yl)amino)-2,5-dimethyl-2,3-dihydrobenzofuran-4-yl)piperidin-1-yl)ethanol], the concentration for half-maximal inhibition (IC50) against Wild-Type ALK is 8.46 nM; on ALK L1196M, below 0.5 nM; in the assay with NCI-H3122 it was 10.6 nM. Further, the GI50 is 10.7 nM on TEL-ALK-F1174L-BaF3 and above 180 nM at TEL-ALK-G1202R-BaF3.

`Cc1cc(Nc2ncc(C(F)(F)F)c(Nc3cn(C)nc3S(=O)(=O)CC(C)C)n2)c2c(c1C1CCN(C)CC1)C[C@@H](C)O2` [REX-D10, (R)—N^2-(2,5-dimethyl-4-(1-methylpiperidin-4-yl)-2,3-dihydrobenzofuran-7-yl)-N^4-(3-(isobutylsulfonyl)-1-methyl-1H-pyrazol-4-yl)-5-(trifluoromethyl)pyrimidine-2,4-diamine]: the IC50 is 17.1 nM at Wild-Type ALK, below 0.5 nM at ALK L1196M and 14.2 nM with NCI-H3122. Moreover, the GI50 is below 200 nM on TEL-ALK-F1174L-BaF3 and above 180 nM at TEL-ALK-G1202R-BaF3.

For the compound `Cc1cc(Nc2ncc(Cl)c(Nc3cn(C(C)C)nc3S(=O)(=O)C(C)C)n2)c2c(c1C1CCN(C)CC1)C[C@@H](C)O2` [REX-D35, (R)-5-chloro-N^2-(2,5-dimethyl-4-(1-methylpiperidin-4-yl)-2,3-dihydrobenzofuran-7-yl)-N^4-(1-isopropyl-3-(isopropylsulfonyl)-1H-pyrazol-4-yl)pyrimidine-2,4-diamine], the IC50 against Wild-Type ALK was found to be 13.9 nM; at ALK L1196M it was 1.99 nM; in the assay on NCI-H3122 it was 40.3 nM. Further, the GI50 at TEL-ALK-F1174L-BaF3 is 80.4 nM; at TEL-ALK-G1202R-BaF3 it was above 180 nM.

For `CC(=O)N1CCC(c2c(C)cc(Nc3ncc(Cl)c(Nc4cn(C)nc4S(=O)(=O)C(C)C)n3)c3c2C[C@@H](C)O3)CC1` [REX-D12, (R)-1-(4-(7-((5-chloro-4-((3-(isopropylsulfonyl)-1-methyl-1H-pyrazol-4-yl)amino)pyrimidin-2-yl)amino)-2,5-dimethyl-2,3-dihydrobenzofuran-4-yl)piperidin-1-yl)ethanone], the concentration for half-maximal inhibition (IC50) is 9.21 nM against Wild-Type ALK, 1.07 nM at ALK L1196M and 10.7 nM in the assay with NCI-H3122. The figures for the GI50 at TEL-ALK-F1174L-BaF3 and on TEL-ALK-G1202R-BaF3 were 11.6 nM and above 180 nM, respectively.

With `Cc1cc(Nc2ncc(C(F)(F)F)c(Nc3cn(C)nc3S(=O)(=O)C(C)C)n2)c2c(c1C1CCN(CCO)CC1)C[C@@H](C)O2` [REX-D5, (R)-2-(4-(7-((4-((3-(isopropylsulfonyl)-1-methyl-1H-pyrazol-4-yl)amino)-5-(trifluoromethyl)pyrimidin-2-yl)amino)-2,5-dimethyl-2,3-dihydrobenzofuran-4-yl)piperidin-1-yl)ethanol], the IC50 at Wild-Type ALK is 15 nM; at ALK L1196M, below 0.5 nM; in the assay on NCI-H3122, 10.7 nM. The GI50 at TEL-ALK-F1174L-BaF3 was 80.1 nM; on TEL-ALK-G1202R-BaF3, above 180 nM.

With `Cc1cc(Nc2ncc(C(F)(F)F)c(Nc3cn(C4CC4)nc3S(=O)(=O)C(C)C)n2)c2c(c1C1CCN(C)CC1)C[C@@H](C)O2` [REX-D9, (R)—N^4-(1-cyclopropyl-3-(isopropylsulfonyl)-1H-pyrazol-4-yl)-N^2-(2,5-dimethyl-4-(1-methylpiperidin-4-yl)-2,3-dihydrobenzofuran-7-yl)-5-(trifluoromethyl)pyrimidine-2,4-diamine], the half-maximal inhibitory concentration (IC50) on Wild-Type ALK was 15.8 nM; on ALK L1196M, 1.02 nM; in the assay on NCI-H3122, 11.8 nM. For the same compound, the figures for the GI50 at TEL-ALK-F1174L-BaF3 and on TEL-ALK-G1202R-BaF3 were 51.8 nM and above 180 nM, respectively.
